In US12139481B2, “Compositions comprising macrocycle derivatives incorporating bridged macrocycles and methods of producing and using same” (Southwestern Oklahoma State University, priority 2015, dated 2024):

Columns and labels:
[1] = system: Cryptococcus neoformans ATCC 90113; assay: Antimicrobial microdilution assay against Cryptococcus neoformans (modified CLSI/NCCLS, optical density); format: cell-based; conditions: for X more potent than Amphotericin B: C. neoformans, ratio of molar IC50 to Amphotericin B; for C. neoformans IC50 / IC50: in vitro, C. neoformans ATCC 90113; for IC50: read-out: C. neoformans IC50 (mol/L)
Outline: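 Broth microdilution (modified CLSI) in RPMI pH 6.0, samples serially diluted in 20% DMSO/saline and tested in duplicate, growth followed by OD630 before and after incubation. MFC is the lowest concentration giving no growth when 5 μL from clear wells is plated on agar.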

C. glabrata ATCC 90030 = assay: Antifungal broth dilution assay against C. glabrata (modified CLSI); format: cell-based, Candida glabrata; conditions: for C. glabrata IC50 / IC50: in vitro; for IC50: converted with molecular weight; for X more potent than Amphotericin B: molar IC50 ratio versus amphotericin B
Method: General Experimental Procedures. All organisms were obtained from the American Type Culture Collection (Manassas, VA) and include the fungi Candida albicans ATCC 90028, C. glabrata ATCC 90030, C. krusei ATCC 6258, and Cryptococcus neoformans ATCC 90113, and the bacteria Staphylococcus aureus ATCC 29213 and methicillin-resistant S. aureus ATCC 33591 (MRS). All organisms were tested using modified versions of the CLSI (formerly NCCLS) methods. For all organisms, optical density was used to monitor growth (NCCLS, Reference Method for Broth Dilution Antifungal Susceptibility Testing of Yeasts; Approved Standard M27-A2. National Committee on Clinical Laboratory Standards, 2002 22 (15); and NCCLS, Methods for Dilution Antimicrobial Susceptibility Tests for Bacteria that Grow Aerobically; Approved Standard, Seventh Edition M7-A7. National Committee on Clinical Laboratory Standards, 2006. 26(2)).
Samples (dissolved in DMSO) were serially-diluted in 20% DMSO/saline and transferred (10 μL) in duplicate to 96 well flat bottom microplates. Inocula were prepared by correcting the OD630 of microbe suspensions in incubation broth [RPMI 1640/0.2% dextrose/0.03% glutamine/MOPS @ pH 6.0 (Cellgro) for Candida spp., Sabouraud Dextrose for C. neoformans, and cation-adjusted Mueller-Hinton (Difco) @ pH 7.3 for Staphylococcus spp. to afford an assay volume of […] and final target inocula of: Candida spp. and C. neoformans: 1.5×10^3, and Staphylococcus spp.: 5.0×10^5 CFU/ml. Final sample test concentrations were 1/100th the DMSO stock concentration. […] All organisms were read at either 530 nm using the Biotek Powerwave XS plate reader (Bio-Tek Instruments, Vermont) prior to and after incubation: Candida spp. at 35° C. for 46-50 h, Staphylococcus spp. at 35° C. for 16-20 h, and C. neoformans at 35° C. for 70-74 h. IC50s (concentrations that afford 50% inhibition relative to controls) were calculated using XLfit 4.2 software (IDBS, Alameda, CA) using fit model 201. The MIC is defined as the lowest test concentration that allows no detectable growth. Minimum fungicidal or bactericidal concentrations were determined by removing 5 μl from each clear (or blue) well, transferring to fresh media, and incubating as previously mentioned. The MFC/MBC is defined as the lowest test concentration that kills the organism (allows no growth).
Primary Analysis. Samples were tested in duplicate at one test concentration (50 μg/mL), and percent inhibitions were calculated relative to blank and growth controls. Samples showing 50% inhibition in at least one test organism were selected for dose response (Secondary) studies.
Secondary Analysis. Extracts from the Primary Assay, and first-run pure compounds and column fractions were tested in duplicate at 3 test concentrations (5-fold dilutions). Samples dissolved to 20 mg/mL in DMSO were tested at 200, 40, and 8 μg/mL. Samples dissolved to 2 mg/mL in DMSO were tested at 20, 4, and 0.8 μg/mL.

CC(=O)[O-].CC(=O)[O-].CC(=O)[O-].CN1CCCN2CCN(CCCN(Cc3cc(CN4CCCN5CCN(C)CCCN(CC5)CC4)cc(CN4CCCN5CCN(C)CCCN(CC5)CC4)c3)CC2)CC1.F[P-](F)(F)(F)(F)F.F[P-](F)(F)(F)(F)F.F[P-](F)(F)(F)(F)F.[Cu+2].[Cu+2].[Cu+2] [BNS25, [Cu3(tris-CB-Cyclams)(OAc)3][PF6]3]
X more potent than Amphotericin B [1]: 0.20
C. neoformans IC50 [1]: 1.950 µg/mL
IC50 [1]: 1190 nM
C. glabrata IC50 (C. glabrata ATCC 90030): 5.420 µg/mL
IC50 (C. glabrata ATCC 90030): 3.31 µM
X more potent than Amphotericin B (C. glabrata ATCC 90030): 0.43

CN1CCN2CCN(CC1)CCN(Cc1ccccn1)CC2 [KRW32, Me1Pic1-CB-cyclen]
X more potent than Amphotericin B [1]: 0.01
C. neoformans IC50 [1]: 5.490 µg/mL
IC50 [1]: 18100 nM
C. glabrata IC50 (C. glabrata ATCC 90030): 14.360 µg/mL
IC50 (C. glabrata ATCC 90030): 47.3 µM
X more potent than Amphotericin B (C. glabrata ATCC 90030): 0.03

[Cu2(m-cyclam-homocyclen)(OAc)1.5][PF6]2.5 [AW051A]
X more potent than Amphotericin B [1]: 0.23
C. neoformans IC50 [1]: 1.172 µg/mL
IC50 [1]: 1020 nM
C. glabrata IC50 (C. glabrata ATCC 90030): 7.253 µg/mL
IC50 (C. glabrata ATCC 90030): 6.32 µM
X more potent than Amphotericin B (C. glabrata ATCC 90030): 0.22

[Ni2(p-CB-Homocyclens)(OAc)2][PF6]2 [TJH378A]
X more potent than Amphotericin B [1]: 0.03
C. neoformans IC50 [1]: 7.540 µg/mL
IC50 [1]: 6980 nM
C. glabrata IC50 (C. glabrata ATCC 90030): 5.150 µg/mL
IC50 (C. glabrata ATCC 90030): 4.77 µM
X more potent than Amphotericin B (C. glabrata ATCC 90030): 0.30

c1ccc(CN2CCN3CCN(CC2)CCN(Cc2ccccn2)CC3)nc1 [PW95]
C. glabrata IC50 (C. glabrata ATCC 90030): 14.850 µg/mL
IC50 (C. glabrata ATCC 90030): 39 µM
X more potent than Amphotericin B (C. glabrata ATCC 90030): 0.04

[Cu2(p-CB-cyclam-cyclen)(OAc)2][PF6]2 [CMB029]
X more potent than Amphotericin B [1]: 0.32
C. neoformans IC50 [1]: ≤ 0.800 µg/mL
IC50 [1]: 734 nM
C. glabrata IC50 (C. glabrata ATCC 90030): 4.190 µg/mL
IC50 (C. glabrata ATCC 90030): 3.84 µM
X more potent than Amphotericin B (C. glabrata ATCC 90030): 0.37

CC(=O)[O-].F[P-](F)(F)(F)(F)F.O.[Co+2].c1ccc(CN2CCCNCCN(Cc3ccccc3)CCCNCC2)cc1 [BME07, [Co(Bn2Cyclam)(OAc)PF6•H2O]
X more potent than Amphotericin B [1]: 0.02
C. neoformans IC50 [1]: 6.980 µg/mL
IC50 [1]: 10600 nM
C. glabrata IC50 (C. glabrata ATCC 90030): 0.597 µg/mL
IC50 (C. glabrata ATCC 90030): 0.903 µM
X more potent than Amphotericin B (C. glabrata ATCC 90030): 1.57

[Co2(m-SB-cyclam-cyclen)(OAc)2][PF6]4•H2O [CMB032]
X more potent than Amphotericin B [1]: 0.41
C. neoformans IC50 [1]: ≤ 0.800 µg/mL
IC50 [1]: 588 nM
C. glabrata IC50 (C. glabrata ATCC 90030): 1.310 µg/mL
IC50 (C. glabrata ATCC 90030): 0.963 µM
X more potent than Amphotericin B (C. glabrata ATCC 90030): 1.47

CC(=O)[O-].Clc1cc(CN2CCCN3CCN(CCCNCC2)CC3)cc(Cl)n1.F[P-](F)(F)(F)(F)F.[Co+2] [KLC002A]
C. glabrata IC50 (C. glabrata ATCC 90030): 16.070 µg/mL
IC50 (C. glabrata ATCC 90030): 24.8 µM
X more potent than Amphotericin B (C. glabrata ATCC 90030): 0.06

[Co3(tris-CB-Cyclams)(OAc)1.51][PF6]4.5 [BNS24]
X more potent than Amphotericin B [1]: 0.52
C. neoformans IC50 [1]: ≤ 0.800 µg/mL
IC50 [1]: 456 nM
C. glabrata IC50 (C. glabrata ATCC 90030): 1.490 µg/mL
IC50 (C. glabrata ATCC 90030): 0.85 µM
X more potent than Amphotericin B (C. glabrata ATCC 90030): 1.67
